The molecules below were run against truncated PI3Kα (p110α/iSH2 p85α), PI3KA_Act (Homo sapiens (Human), UniProt P42336) (assay: PI3Kα biochemical kinase assay, fluorescence polarization format (PI3KA_Act)). Details: 0.5 nM p110α/iSH2 p85, 1 mM ATP, 30 μM PIP2, 15-min preincubation; Morrison equation fit; read-out: PI3KA_Act Ki.
Protocol: Enzyme Production for Biochemical Assay: p110α-iSH2 p85α Complex (Full Length p110α and p85α iSH2)(“PI3KA Act”)
Gene encoding p110α subunit was subcloned into polyhedrine promoter while gene encoding p85α niSH2 domains was subcloned into p10 promoter. […] Recombinant baculovirus was generated using Bac-to-Bac protocol (Life Technologies, Carlsbad, Calif.). Large scale expression was conducted in Sf21 (Life Technologies, Carlsbad, Calif.) cells at a multiplicity of infection (“MOI”)=1 for 48 hours. Cells were lyzed in 50 mM Tris pH 8.0, 250 mM NaCl, 5% glycerol, 0.25 mM TCEP, and 20 mM imidazole. The p110α-niSH2 p85α complex was purified from clarified supernatant using Immobilized Metalo Affinity Chromatography (“IMAC”). The protein was eluted from the column using 50 mM Tris pH 8.0, 200 mM NaCl, 0.25 mM TCEP, and 200 mM imidazole. Following elution p110α-niSH2 p85α complex was dialyzed against 4 liters of 50 mM Tris pH 8.0, 200 mM NaCl, 0.25 mM TCEP, and 40 mM imidazole in the presence of PreScission Protease (1:70 molar ratio of Protease to Protein) and TEV protease (1:40 molar ratio protease to protein) for 16 hours at 4° C. The protein was further purified using reverse IMAC to remove cleaved histidine tag and contaminants captured during initial IMAC purification. The mixture of p110α-iSH2 p85α complex and cleaved nSH2 was recovered in reverse IMAC 40 mM imidazole flow through and 60 mM imidazole wash fractions. Those fractions were pulled together and loaded on Superdex 200 26/60 SEC column equilibrated in 25 mM Tris, pH 8.0, 100 mM NaCl, 2% glycerol, and 2 mM TCEP.
The enzymatic reactions were conducted in 50 μL volumes in 96-well plates. […] The reactions were incubated for 30 min at room temperature, stopped with EDTA pH 8 (10 mM final concentration). […] The plate was shaken for 30 minutes and fluorescence polarization values were measured on an LJL Analyst HT plate reader (Molecular Devices, Sunnyvale, Calif.).

Chain of truncated PI3Kα (p110α/iSH2 p85α), PI3KA_Act (P42336 whole entry, the tested form may be a part): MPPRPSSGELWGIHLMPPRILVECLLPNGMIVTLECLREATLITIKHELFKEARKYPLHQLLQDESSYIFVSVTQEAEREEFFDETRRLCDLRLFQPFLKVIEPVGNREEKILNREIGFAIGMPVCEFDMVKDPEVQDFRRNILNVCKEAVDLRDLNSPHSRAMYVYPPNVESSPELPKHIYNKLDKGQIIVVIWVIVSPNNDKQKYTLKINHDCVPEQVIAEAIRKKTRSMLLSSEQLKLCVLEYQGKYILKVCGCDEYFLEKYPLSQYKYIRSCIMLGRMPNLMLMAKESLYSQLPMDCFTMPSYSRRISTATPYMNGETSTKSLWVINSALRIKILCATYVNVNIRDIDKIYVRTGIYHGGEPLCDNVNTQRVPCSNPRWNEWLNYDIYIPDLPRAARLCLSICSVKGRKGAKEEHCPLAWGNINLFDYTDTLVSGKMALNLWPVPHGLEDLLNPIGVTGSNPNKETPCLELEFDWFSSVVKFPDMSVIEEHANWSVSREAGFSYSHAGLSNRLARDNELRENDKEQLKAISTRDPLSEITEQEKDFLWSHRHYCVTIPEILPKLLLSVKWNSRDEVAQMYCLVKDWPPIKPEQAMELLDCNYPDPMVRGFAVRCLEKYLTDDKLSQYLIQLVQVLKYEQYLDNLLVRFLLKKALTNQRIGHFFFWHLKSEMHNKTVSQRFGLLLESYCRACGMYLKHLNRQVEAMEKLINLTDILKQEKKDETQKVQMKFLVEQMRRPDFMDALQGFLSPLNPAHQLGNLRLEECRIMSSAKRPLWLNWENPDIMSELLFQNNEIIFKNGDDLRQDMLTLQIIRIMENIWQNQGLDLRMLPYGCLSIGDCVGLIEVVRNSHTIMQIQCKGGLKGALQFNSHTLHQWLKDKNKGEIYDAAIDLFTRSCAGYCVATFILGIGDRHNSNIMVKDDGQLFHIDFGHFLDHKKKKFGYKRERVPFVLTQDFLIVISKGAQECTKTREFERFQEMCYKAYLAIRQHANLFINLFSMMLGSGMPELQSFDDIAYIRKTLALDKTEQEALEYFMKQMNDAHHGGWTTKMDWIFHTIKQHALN

Row | Compound | Ki [nM]
1 | Nc1ncc(-c2cc(N[C@@]3(CO)CCN(C(=O)[C@H](O)c4ccccc4)C3)nc(N3CCOCC3)n2)cn1 [Example 55, (2R)-1-[(3S)-3-{[2′-amino-2-(morpholin-4-yl)-4,5′-bipyrimidin-6-yl]amino}-3-(hydroxymethyl)pyrrolidin-1-yl]-2-hydroxy-2-phenylethanone] | 0.371
2 | Nc1ncc(-c2nc(N3CCOCC3)nc(N[C@@]3(CO)CCCN(C(=O)C4(F)CC4)C3)c2F)cn1 [Example 159, [(3S)-3-{[2′-amino-5-fluoro-2-(morpholin-4-yl)-4,5′-bipyrimidin-6-yl]amino}-3-(hydroxymethyl)piperidin-1-yl](1-fluorocyclopropyl)methanone] | 0.102
3 | CC[C@@]1(Nc2cc(-c3cnc(N)nc3)nc(N3CCOCC3)n2)CCN(C(=O)C2(F)CC2)C1 [Example 94, [(3R)-3-{[2′-amino-2-(morpholin-4-yl)-4,5′-bipyrimidin-6-yl]amino}-3-ethylpyrrolidin-1-yl](1-fluorocyclopropyl)methanone] | 0.631
4 | Cn1ccnc1C(=O)N1CC[C@](CO)(Nc2cc(-c3cnc(N)nc3)nc(N3CCOCC3)n2)C1 [Example 73, [(3S)-3-{[2′-amino-2-(morpholin-4-yl)-4,5′-bipyrimidin-6-yl]amino}-3-(hydroxymethyl)pyrrolidin-1-yl](1-methyl-1H-imidazol-2-yl)methanone] | 0.746
5 | Cc1ncc(-c2cc(N[C@@]3(CO)CCN(C(=O)OC(C)(C)C)C3)nc(N3CCOCC3)n2)cn1 [Example 126, tert-butyl (3S)-3-(hydroxymethyl)-3-{[2′-methyl-2-(morpholin-4-yl)-4,5′-bipyrimidin-6-yl]amino}pyrrolidine-1-carboxylate] | 1.92
6 | CC(C)S(=O)(=O)N1CC[C@](CO)(Nc2cc(-c3cnc(N)nc3)nc(N3CCOCC3)n2)C1 [Example 52, [(3S)-3-{[2′-amino-2-(morpholin-4-yl)-4,5′-bipyrimidin-6-yl]amino}-1-(propan-2-ylsulfonyl)pyrrolidin-3-yl]methanol] | 0.084
7 | C[C@@]1(Nc2cc(-c3cnc(N)nc3)nc(N3CCOCC3)n2)CCN(S(C)(=O)=O)C1 [Example 12, N˜6˜-[(3R)-3-methyl-1-(methylsulfonyl)pyrrolidin-3-yl]-2-(morpholin-4-yl)-4,5′-bipyrimidine-2′,6-diamine] | 1.29
8 | CN1CCCC(N2CC[C@](CO)(Nc3cc(-c4cnc(N)nc4)nc(N4CCOCC4)n3)C2)C1=O (stereo partly drawn) [Example 84, 3-[(3S)-3-{[2′-amino-2-(morpholin-4-yl)-4,5′-bipyrimidin-6-yl]amino}-3-(hydroxymethyl)pyrrolidin-1-yl]-1-methylpiperidin-2-one] | 0.445
9 | Nc1ncc(-c2nc(N3CCOCC3)nc(N[C@@]3(CO)CCCN(C(=O)C4CC4)C3)c2F)cn1 [Example 156, [(3S)-3-{[2′-amino-5-fluoro-2-(morpholin-4-yl)-4,5′-bipyrimidin-6-yl]amino}-3-(hydroxymethyl)piperidin-1-yl](cyclopropyl)methanone] | 0.454
10 | Nc1ncc(-c2cc(N[C@]3(CO)CCNC3)nc(N3CCOCC3)n2)cn1 [Example 30, [(3R)-3-{[2′-amino-2-(morpholin-4-yl)-4,5′-bipyrimidin-6-yl]amino}pyrrolidin-3-yl]methanol] | 2.42
11 | CN(c1cc(-c2cnc(N)nc2)nc(N2CCOCC2)n1)C1(CO)CCN(C(=O)OC(C)(C)C)C1 (single isomer, unassigned) [Example 26, tert-butyl 3-{[2′-amino-2-(morpholin-4-yl)-4,5′-bipyrimidin-6-yl](methyl)amino}-3-(hydroxymethyl)pyrrolidine-1-carboxylate] | < 0.018
12 | C[C@H]1COCCN1c1nc(N[C@@]2(CO)CCN(C(=O)C3COC3)C2)cc(-c2cnc(N)nc2)n1 [Example 104, [(3S)-3-({2′-amino-2-[(3S)-3-methylmorpholin-4-yl]-4,5′-bipyrimidin-6-yl}amino)-3-(hydroxymethyl)pyrrolidin-1-yl](oxetan-3-yl)methanone] | 0.674
13 | CCC(=O)N1CCC[C@](CO)(Nc2nc(N3CCOCC3)nc(-c3cnc(N)nc3)c2F)C1 [Example 146, 1-[(3S)-3-{[2′-amino-5-fluoro-2-(morpholin-4-yl)-4,5′-bipyrimidin-6-yl]amino}-3-(hydroxymethyl)piperidin-1-yl]propan-1-one] | 0.237
14 | C[C@H]1COCCN1c1nc(N[C@@]2(CO)CCNC2)c(F)c(-c2cnc(N)nc2)n1 [Example 112, [(3S)-3-({2′-amino-5-fluoro-2-[(3S)-3-methylmorpholin-4-yl]-4,5′-bipyrimidin-6-yl}amino)pyrrolidin-3-yl]methanol] | 1.01
15 | Cn1cc(C(=O)N2CC[C@](CO)(Nc3cc(-c4cnc(N)nc4)nc(N4CCOCC4)n3)C2)cn1 [Example 81, [(3S)-3-{[2′-amino-2-(morpholin-4-yl)-4,5′-bipyrimidin-6-yl]amino}-3-(hydroxymethyl)pyrrolidin-1-yl](1-methyl-1H-pyrazol-4-yl)methanone] | 0.31
16 | C[C@H]1COCCN1c1nc(N[C@]2(C)CCN(C(=O)OC(C)(C)C)C2)cc(-c2cnc(N)nc2)n1 [Example 15, tert-butyl (3R)-3-({2′-amino-2-[(3S)-3-methylmorpholin-4-yl]-4,5′-bipyrimidin-6-yl}amino)-3-methylpyrrolidine-1-carboxylate] | 0.979
17 | Nc1ncc(-c2nc(N3CCOCC3)nc(N[C@@]3(CO)CCCN(C(=O)OCC(F)F)C3)c2F)cn1 [Example 149, 2,2-difluoroethyl (3S)-3-{[2′-amino-5-fluoro-2-(morpholin-4-yl)-4,5′-bipyrimidin-6-yl]amino}-3-(hydroxymethyl)piperidine-1-carboxylate] | < 0.018
18 | C[C@H]1COCCN1c1nc(NC2(CO)CN(C(=O)OC(C)(C)C)C2)cc(-c2cnc(N)nc2)n1 [Example 49, tert-butyl 3-({2′-amino-2-[(3S)-3-methylmorpholin-4-yl]-4,5′-bipyrimidin-6-yl}amino)-3-(hydroxymethyl)azetidine-1-carboxylate] | 0.083
19 | CC(C)OC(=O)N1CC[C@](CO)(Nc2cc(-c3cnc(N)nc3)nc(N3CCOCC3)n2)C1 [Example 44, propan-2-yl (3S)-3-{[2′-amino-2-(morpholin-4-yl)-4,5′-bipyrimidin-6-yl]amino}-3-(hydroxymethyl)pyrrolidine-1-carboxylate] | 0.032
20 | CC(C)[C@H](N)C(=O)N1CC[C@](CO)(Nc2cc(-c3cnc(N)nc3)nc(N3CCOCC3)n2)C1 [Example 51, (2S)-2-amino-1-[(3S)-3-{[2′-amino-2-(morpholin-4-yl)-4,5′-bipyrimidin-6-yl]amino}-3-(hydroxymethyl)pyrrolidin-1-yl]-3-methylbutan-1-one] | 0.619
21 | Nc1ncc(-c2nc(N3CCOCC3)nc(N[C@]3(CO)CCCN(C(=O)C4(F)CC4)C3)c2F)cn1 (single isomer, unassigned) [Example 158] | 0.627

Same assay, conditions: PI3KA_Act Ki (nM), 0.5 nM p110α/iSH2 p85, 1 mM ATP, 30 μM PIP2, 15-min preincubation; Morrison equation fit

Row | Compound | Ki [nM]
22 | C[C@H]1COCCN1c1nc(N[C@@]2(CO)CCN(C(=O)OCC(F)F)C2)c(F)c(-c2cnc(N)nc2)n1 [Example 119, 2,2-difluoroethyl (3S)-3-({2′-amino-5-fluoro-2-[(3S)-3-methylmorpholin-4-yl]-4,5′-bipyrimidin-6-yl}amino)-3-(hydroxymethyl)pyrrolidine-1-carboxylate] | < 0.018

— patent publication US9758538B2, “Pyrimidine derivatives” (PFIZER INC., priority 2015, dated 2017)
